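Each compound was tested at five concentrations against cells in 96-well plates for 48 hours. The concentration for 50% growth inhibition is given as GI50.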 Calls of active or inactive are those of the source. Rule as the data show it: active = GI50 up to about 1.1 µM and inactive = higher.
What was measured:
Assay in all cases: NCI tumour cell line growth inhibition, 48 h
CAKI-1 = test system: CAKI-1
M14 = test system: M14
ACHN = test system: ACHN
HCT-15 = test system: HCT-15
SK-OV-3 = test system: SK-OV-3
NCI-H226 = test system: NCI-H226
SNB-75 = test system: SNB-75
786-0 = test system: 786-0
NCI-H460 = test system: NCI-H460
RPMI-8226 = test system: RPMI-8226
Malme-3M = test system: Malme-3M
MDA-MB-435 = test system: MDA-MB-435
EKVX = test system: EKVX
KM12 = test system: KM12
SK-MEL-2 = test system: SK-MEL-2
U-251 = test system: U-251
SW-620 = test system: SW-620
SF-295 = test system: SF-295
NCI/ADR-RES = test system: NCI/ADR-RES
MDA-N = test system: MDA-N
SK-MEL-5 = test system: SK-MEL-5
T47D = test system: T47D
RXF 393 = test system: RXF 393
LOX IMVI = test system: LOX IMVI
UO-31 = test system: UO-31
OVCAR-4 = test system: OVCAR-4
PC-3 = test system: PC-3
Hs-578T = test system: Hs-578T
OVCAR-5 = test system: OVCAR-5
A549 = test system: A549
SF-268 = test system: SF-268
HT-29 = test system: HT-29
SNB-19 = test system: SNB-19
NCI-H522 = test system: NCI-H522
COLO 205 = test system: COLO 205
SK-MEL-28 = test system: SK-MEL-28
IGROV-1 = test system: IGROV-1
NCI-H23 = test system: NCI-H23
UACC-257 = test system: UACC-257
DU-145 = test system: DU-145
OVCAR-8 = test system: OVCAR-8
MCF7 = test system: MCF7
OVCAR-3 = test system: OVCAR-3
SR = test system: SR
TK-10 = test system: TK-10
BT-549 = test system: BT-549
MDA-MB-231 = test system: MDA-MB-231
UACC-62 = test system: UACC-62
SN12C = test system: SN12C
HOP-92 = test system: HOP-92
HCC 2998 = test system: HCC 2998
HOP-62 = test system: HOP-62
HCT-116 = test system: HCT-116
MOLT-4 = test system: MOLT-4

SMILES: COc1ccc2c(c1O)C13CCN(C)C(C2)C1CCC1(C3)OCCO1 (centres undefined)
- GI50 (CAKI-1): > 100 µM (inactive)
- GI50 (M14): > 100 µM (inactive)
- GI50 (ACHN): > 100 µM (inactive)
- GI50 (HCT-15): > 100 µM
- GI50 (SK-OV-3): > 100 µM (inactive)
- GI50 (NCI-H226): > 100 µM (inactive)
- GI50 (SNB-75): > 100 µM (inactive)
- GI50 (786-0): > 100 µM (inactive)
- GI50 (NCI-H460): > 100 µM (inactive)
- GI50 (RPMI-8226): > 100 µM (inactive)
- GI50 (Malme-3M): > 100 µM (inactive)
- GI50 (MDA-MB-435): > 100 µM (inactive)
- GI50 (EKVX): > 100 µM (inactive)
- GI50 (KM12): > 100 µM (inactive)
- GI50 (SK-MEL-2): > 100 µM (inactive)
- GI50 (U-251): > 100 µM (inactive)
- GI50 (SW-620): > 100 µM (inactive)
- GI50 (SF-295): > 100 µM (inactive)
- GI50 (NCI/ADR-RES): > 100 µM (inactive)
- GI50 (MDA-N): > 100 µM (inactive)
- GI50 (SK-MEL-5): > 100 µM (inactive)
- GI50 (T47D): > 100 µM (inactive)
- GI50 (RXF 393): > 100 µM (inactive)
- GI50 (LOX IMVI): > 100 µM (inactive)
- GI50 (UO-31): > 100 µM (inactive)
- GI50 (OVCAR-4): > 100 µM (inactive)
- GI50 (PC-3): > 100 µM (inactive)
- GI50 (Hs-578T): > 100 µM (inactive)
- GI50 (OVCAR-5): > 100 µM (inactive)
- GI50 (A549): > 100 µM (inactive)
- GI50 (SF-268): > 100 µM (inactive)
- GI50 (HT-29): > 100 µM (inactive)
- GI50 (SNB-19): > 100 µM (inactive)
- GI50 (NCI-H522): > 100 µM (inactive)
- GI50 (COLO 205): > 100 µM (inactive)
- GI50 (SK-MEL-28): > 100 µM (inactive)
- GI50 (IGROV-1): > 100 µM (inactive)
- GI50 (NCI-H23): > 100 µM (inactive)
- GI50 (UACC-257): > 100 µM (inactive)
- GI50 (DU-145): > 100 µM (inactive)
- GI50 (OVCAR-8): > 100 µM (inactive)
- GI50 (MCF7): > 100 µM (inactive)
- GI50 (OVCAR-3): > 100 µM (inactive)
- GI50 (SR): > 100 µM (inactive)
- GI50 (TK-10): > 100 µM (inactive)
- GI50 (BT-549): > 100 µM (inactive)
- GI50 (MDA-MB-231): > 100 µM (inactive)
- GI50 (UACC-62): > 100 µM (inactive)
- GI50 (SN12C): > 100 µM (inactive)
- GI50 (HOP-92): > 100 µM (inactive)
- GI50 (HCC 2998): > 100 µM (inactive)
- GI50 (HOP-62): > 100 µM (inactive)
- GI50 (HCT-116): > 100 µM (inactive)
- GI50 (MOLT-4): > 100 µM (inactive)

Reference: ChEMBL document CHEMBL1201862, “PubChem BioAssay data set” (2004)
